{"source": "patent US12016858B2", "about": "“Methods for the treatment of abnormal involuntary movement disorders” (AUSPEX PHARMACEUTICALS, INC., priority 2015, dated 2024)", "test_system": "subjects with manifest HD, chorea", "experiment": "ARC-HD open-label, single-arm study (Rollover and Switch cohorts)", "format": "in vivo, human", "description": "In a second clinical trial, a method for converting patients with adequate control of chorea with tetrabenazine to deutetrabenazine treatment was implemented. Alternatives for Reducing Chorea in Huntington Disease (ARC-HD) was an open-label, single-arm study in which subjects with manifest HD who were receiving FDA-approved doses of tetrabenazine for the treatment of chorea or had successfully completed First-HD were invited to participate. The study thus comprised two cohorts. […] Other key inclusion criteria for the study included: diagnosed with manifest HD, as indicated by characteristic motor examination features; a documented expanded cytosine adenine guanine (CAG) repeat (≥37) and Total Functional Capacity (TFC) score ≥5 at or before Screening; able to ambulate without assistance for at least 20 yards ([…] devices such as walker or cane permitted); and subject has a reliable caregiver who interacts with the subject on a daily basis, oversees study drug administration, assures attendance at study visits, and participates in evaluations, as required. Key exclusion criteria included serious untreated or undertreated psychiatric illness (e.g., depression) at Screening or Baseline; concomitant dopamine receptor antagonists, dopamine agonists, levodopa, reserpine, N-methyl-D-aspartate receptor antagonists, or monoamine oxidase inhibitors within 30 days of Screening or Baseline; and score ≥11 on the depression subscale of the Hospital Anxiety and Depression Scale (HADS), a score of ≥11 on the Swallowing Disturbance Questionnaire (SDQ), or a Unified Parkinson's Disease Rating Scale (UPDRS) dysarthria score of ≥3 at Screening or Baseline. The guidance for investigators on conversion of subjects from stable doses of tetrabenazine to deutetrabenazine in the ARC-HD Switch study was designed to minimize the risk that dose conversion would result in either loss of efficacy or increased adverse events. The conversion method applied was based on modeling and simulation of Phase 1 pharmacokinetic data for deutetrabenazine and tetrabenazine. The objective of the pharmacokinetic analysis was to identify an initial dosing regimen of deutetrabenazine predicted to provide exposure at steady state of the active α and β metabolites that was less than or equal to the predicted AUC at steady state of the active alpha and beta metabolites of tetrabenazine, but with a lower Cmax. Subjects in the Switch cohort completed a full screening evaluation. […] Subjects received existing tetrabenazine regimen through midnight of Day 0 and switched to their assigned deutetrabenazine regimen the next morning (Day 1 of the study). […] The investigator, in consultation with the subject and caregiver, determined when an adequate level of chorea control had been achieved. If a subject experienced a “clinically significant” adverse event attributable to deutetrabenazine, the investigator determined if a dose reduction or suspension was necessary. […] The deutetrabenazine dose for these subjects was titrated from a starting dose of 6 mg per day to a dose that controlled chorea and was well tolerated. For both cohorts, oral tablets at strengths of 6 mg, 9 mg, and 12 mg were used. Doses of 12 mg and higher were administered in two divided doses approximately 10 hours apart. All study treatment regimens were administered orally with meals. The maximum total daily dose of deutetrabenazine was set at 72 mg per day, unless the subject was receiving a strong CYP2D6 inhibitor (e.g., paroxetine), in which case the maximum total daily dose was 36 mg. Subjects attended regular clinic visits to evaluate safety and establish an optimal dose. The investigator, in consultation with the subject and caregiver, determined when an adequate level of chorea control was achieved; the dose of DTBZ could be increased on a weekly basis until there was adequate control of chorea, the subject experienced a protocol defined clinically significant adverse event, or the maximal allowable dose was reached. […]", "data": [{"smiles": "[2H]C([2H])([2H])Oc1cc2c(cc1OC([2H])([2H])[2H])C1CC(=O)C(CC(C)C)CN1CC2", "note": "(stereo not drawn) [deutetrabenazine, (RR, SS)-1,3,4,6,7,11b-hexahydro-9,10-di(methoxy-d3)-3-(2-methylpropyl)-2H-benzo[a]quinolizin-2-one]", "values": [{"measurement": "subjects who experienced AEs", "setting": "Rollover Cohort", "result": "39 (52.0%) n (%)"}, {"measurement": "subjects who experienced serious AEs", "setting": "Rollover Cohort", "result": "Three"}, {"measurement": "subjects with an AE that led to a dose reduction or dose suspension", "setting": "Rollover Cohort", "result": "Five"}, {"measurement": "TEAE Anxiety", "setting": "Rollover Cohort (N = 75)", "result": "3 (4.0) n (%)"}, {"measurement": "TEAE Constipation", "setting": "Rollover Cohort (N = 75)", "result": "3 (4.0) n (%)"}, {"measurement": "TEAE Depression", "setting": "Rollover Cohort (N = 75)", "result": "8 (10.7) n (%)"}, {"measurement": "TEAE Diarrhoea", "setting": "Rollover Cohort (N = 75)", "result": "4 (5.3) n (%)"}, {"measurement": "TEAE Disorientation", "setting": "Rollover Cohort (N = 75)", "result": "0 n (%)"}, {"measurement": "TEAE Dry mouth", "setting": "Rollover Cohort (N = 75)", "result": "3 (4.0) n (%)"}, {"measurement": "TEAE Fall", "setting": "Rollover Cohort (N = 75)", "result": "10 (13.3) n (%)"}, {"measurement": "TEAE Fatigue", "setting": "Rollover Cohort (N = 75)", "result": "3 (4.0) n (%)"}, {"measurement": "TEAE Insomnia", "setting": "Rollover Cohort (N = 75)", "result": "6 (8.0) n (%)"}, {"measurement": "TEAE Irritability", "setting": "Rollover Cohort (N = 75)", "result": "3 (4.0) n (%)"}, {"measurement": "TEAE Nasopharyngitis", "setting": "Rollover Cohort (N = 75)", "result": "2 (2.7) n (%)"}, {"measurement": "TEAE Sleep disorder", "setting": "Rollover Cohort (N = 75)", "result": "3 (4.0) n (%)"}, {"measurement": "TEAE Somnolence", "setting": "Rollover Cohort (N = 75)", "result": "6 (8.0) n (%)"}, {"measurement": "TEAE Vomiting", "setting": "Rollover Cohort (N = 75)", "result": "3 (4.0) n (%)"}, {"measurement": "subjects who experienced AEs", "setting": "Rollover Cohort, Day 1 through Week 8", "result": 45.3, "unit": "%"}, {"measurement": "TMC mean (SD) decrease from baseline", "setting": "Rollover Cohort, Week 2", "result": "1.9 (3.0) units"}, {"measurement": "Total Maximal Chorea Score, Mean (SD) Change from Baseline", "setting": "Rollover Cohort, Week 2", "result": "−1.9 (2.95)"}, {"measurement": "Total Maximal Chorea Score, Mean (SD) Score", "setting": "Rollover Cohort, Week 2", "result": "10.1 (3.41)"}, {"measurement": "Total Motor Score, Mean (SD) Change from Baseline", "setting": "Rollover Cohort, Week 2", "result": "−3.9 (6.67)"}, {"measurement": "Total Motor Score, Mean (SD) Score", "setting": "Rollover Cohort, Week 2", "result": "32.4 (15.23)"}, {"measurement": "mean decrease in TMS from baseline", "setting": "Rollover Cohort, Week 2", "result": 3.9, "unit": "units"}, {"measurement": "Total Maximal Chorea Score, Mean (SD) Change from Baseline", "setting": "Rollover Cohort, Week 4", "result": "−2.5 (3.21)"}, {"measurement": "Total Maximal Chorea Score, Mean (SD) Score", "setting": "Rollover Cohort, Week 4", "result": "9.8 (3.69)"}, {"measurement": "Total Motor Score, Mean (SD) Change from Baseline", "setting": "Rollover Cohort, Week 4", "result": "−5.9 (7.88)"}, {"measurement": "Total Motor Score, Mean (SD) Score", "setting": "Rollover Cohort, Week 4", "result": "32.1 (16.84)"}, {"measurement": "Total Maximal Chorea Score, Mean (SD) Change from Baseline", "setting": "Rollover Cohort, Week 8", "result": "−4.5 (3.34)"}, {"measurement": "Total Maximal Chorea Score, Mean (SD) Score", "setting": "Rollover Cohort, Week 8", "result": "7.9 (3.91)"}, {"measurement": "Total Motor Score, Mean (SD) Change from Baseline", "setting": "Rollover Cohort, Week 8", "result": "−8.3 (8.58)"}, {"measurement": "Total Motor Score, Mean (SD) Score", "setting": "Rollover Cohort, Week 8", "result": "31.0 (18.07)"}, {"measurement": "subjects who experienced AEs", "setting": "Rollover Cohort, Week 8 through the visit cut-off date", "result": 43.2, "unit": "%"}, {"measurement": "TMC mean (SD) decrease from baseline", "setting": "Rollover Cohort, Week 15", "result": "4.5 (5.0) units"}, {"measurement": "Total Maximal Chorea Score, Mean (SD) Score", "setting": "Rollover Cohort, Week 15", "result": "7.9 (4.05)"}, {"measurement": "Total Motor Score, Mean (SD) Change from Baseline", "setting": "Rollover Cohort, Week 15", "result": "−8.0 (8.41)"}, {"measurement": "Total Motor Score, Mean (SD) Score", "setting": "Rollover Cohort, Week 15", "result": "30.5 (17.70)"}, {"measurement": "mean decrease in TMS from baseline", "setting": "Rollover Cohort, Week 15", "result": 8.0, "unit": "units"}, {"measurement": "Total Motor Score, Mean (SD) Change from Baseline", "setting": "Rollover Cohort, Week 15, listed as DTBZ", "result": "−8.0"}, {"measurement": "subjects with AEs assessed as mild or moderate in intensity", "setting": "Rollover Cohort, of the 39 subjects with AEs", "result": "36 (92.3%) n (%)"}, {"measurement": "tolerability", "setting": "Rollover and Switch Cohorts", "result": "generally well tolerated"}, {"measurement": "subjects who experienced at least one AE", "setting": "Switch Cohort", "result": "21 (56.8%) n (%)"}, {"measurement": "subjects who experienced serious AEs", "setting": "Switch Cohort", "result": "Two"}, {"measurement": "subjects with an AE that led to a dose reduction or dose suspension", "setting": "Switch Cohort", "result": "four"}, {"measurement": "withdrawal from the study due to an AE", "setting": "Switch Cohort", "result": "no subjects withdrew"}, {"measurement": "TEAE Anxiety", "setting": "Switch Cohort (N = 37)", "result": "3 (8.1) n (%)"}, {"measurement": "TEAE Constipation", "setting": "Switch Cohort (N = 37)", "result": "2 (5.4) n (%)"}, {"measurement": "TEAE Diarrhoea", "setting": "Switch Cohort (N = 37)", "result": "2 (5.4) n (%)"}, {"measurement": "TEAE Disorientation", "setting": "Switch Cohort (N = 37)", "result": "2 (5.4) n (%)"}, {"measurement": "TEAE Dry mouth", "setting": "Switch Cohort (N = 37)", "result": "2 (5.4) n (%)"}, {"measurement": "TEAE Fall", "setting": "Switch Cohort (N = 37)", "result": "3 (8.1) n (%)"}, {"measurement": "TEAE Fatigue", "setting": "Switch Cohort (N = 37)", "result": "1 (2.7) n (%)"}, {"measurement": "TEAE Insomnia", "setting": "Switch Cohort (N = 37)", "result": "1 (2.7) n (%)"}, {"measurement": "TEAE Irritability", "setting": "Switch Cohort (N = 37)", "result": "2 (5.4) n (%)"}, {"measurement": "TEAE Nasopharyngitis", "setting": "Switch Cohort (N = 37)", "result": "2 (5.4) n (%)"}, {"measurement": "TEAE Sleep disorder", "setting": "Switch Cohort (N = 37)", "result": "0 n (%)"}, {"measurement": "TEAE Somnolence", "setting": "Switch Cohort (N = 37)", "result": "9 (24.3) n (%)"}, {"measurement": "TEAE Vomiting", "setting": "Switch Cohort (N = 37)", "result": "1 (2.7) n (%)"}, {"measurement": "Total Maximal Chorea Score, Mean (SD) Score", "setting": "Switch Cohort, Week 1", "result": "11.76 (5.11)"}, {"measurement": "Total Motor Score, Mean (SD) Change from Baseline", "setting": "Switch Cohort, Week 1", "result": "−2.14 (5.414)"}, {"measurement": "Total Motor Score, Mean (SD) Score", "setting": "Switch Cohort, Week 1", "result": "36.35 (18.043)"}, {"measurement": "Total Maximal Chorea Score, Mean (SD) Score", "setting": "Switch Cohort, Week 4", "result": "11.86 (5.23)"}, {"measurement": "Total Motor Score, Mean (SD) Change from Baseline", "setting": "Switch Cohort, Week 4", "result": "−1.85 (8.419)"}, {"measurement": "Total Motor Score, Mean (SD) Score", "setting": "Switch Cohort, Week 4", "result": "37.14 (19.516)"}, {"measurement": "Total Maximal Chorea Score, Mean (SD) Change from Baseline", "setting": "Switch Cohort, Week 8", "result": "−1.9"}, {"measurement": "Total Maximal Chorea Score, Mean (SD) Score", "setting": "Switch Cohort, Week 8", "result": "10.10 (5.56)"}, {"measurement": "Total Motor Score, Mean (SD) Score", "setting": "Switch Cohort, Week 8", "result": "34.58 (18.268)"}, {"measurement": "Total Motor Score, Mean (SD) Change from Baseline", "setting": "Switch Cohort, Week 8, listed as DTBZ", "result": "−3.7"}, {"measurement": "Total Maximal Chorea Score, Mean (SD) Score", "setting": "Switch Cohort, Week 15", "result": "10.87 (5.99)"}, {"measurement": "Total Motor Score, Mean (SD) Change from Baseline", "setting": "Switch Cohort, Week 15", "result": "−1.93 (10.910)"}, {"measurement": "Total Motor Score, Mean (SD) Score", "setting": "Switch Cohort, Week 15", "result": "35.00 (22.984)"}, {"measurement": "adverse events of chorea or worsening chorea", "setting": "Switch Cohort, including first week after conversion from tetrabenazine", "result": "no adverse events of chorea or worsening chorea"}, {"measurement": "subjects with AEs assessed as mild to moderate in intensity", "setting": "Switch Cohort, of the 21 subjects with AEs", "result": "20 (95.2%) n (%)"}, {"measurement": "mean change from baseline in swallowing disturbance (questionnaire)", "setting": "patients switched from tetrabenazine to deutetrabenazine (FIG. 7)", "result": "trend toward improvement in swallowing"}, {"measurement": "overall analysis of the safety scales (UHDRS, SDQ, UPDRS dysarthria, BARS, HADS, ESS, C-SSRS, MoCA)", "setting": "through Week 28", "result": "no increased risk"}]}]}
